PubChem BioAssay (NCI)
Values joined by “and” are separate entries in the source; they are usually repeats but may differ in a detail not shown here. Equal values may be shown once.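 Dose response: 5 concentrations. Exposure: 48 h. Format: 96-well plates. Endpoint: linear interpolation; highest concentration if not reached. GI50 is the concentration that inhibits growth by half. TGI: concentration producing complete growth inhibition.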

What was measured:
Assay in all cases: inhibition of tumour cell growth, NCI panel, 48 h
HCT-116 colon = system: HCT-116 colon
HOP-62 NSCLC = system: HOP-62 NSCLC
KM12 colon = system: KM12 colon
U251 CNS = system: U251 CNS
OVCAR-3 ovarian = system: OVCAR-3 ovarian
NCI-H23 lung = system: NCI-H23 lung
A498 renal = system: A498 renal
UACC-62 melanoma = system: UACC-62 melanoma
SK-MEL-5 melanoma = system: SK-MEL-5 melanoma
SK-MEL-28 melanoma = system: SK-MEL-28 melanoma

SMILES | GI50 (HCT-116 colon) [nM] | TGI (HCT-116 colon) [nM] | GI50 (HOP-62 NSCLC) [nM] | TGI (HOP-62 NSCLC) [nM] | GI50 (KM12 colon) | TGI (KM12 colon) | GI50 (U251 CNS) [nM] | TGI (U251 CNS) [nM] | GI50 (OVCAR-3 ovarian) [nM] | TGI (OVCAR-3 ovarian) [nM] | GI50 (NCI-H23 lung) [nM] | TGI (NCI-H23 lung) [nM] | GI50 (A498 renal) [nM] | TGI (A498 renal) [nM] | GI50 (UACC-62 melanoma) [nM] | TGI (UACC-62 melanoma) [nM] | GI50 (SK-MEL-5 melanoma) [nM] | TGI (SK-MEL-5 melanoma) [nM] | GI50 (SK-MEL-28 melanoma) [nM] | TGI (SK-MEL-28 melanoma) [nM]
FC(F)(F)c1[nH]ncc1-c1nc2c(N3CCCCC3)cc3[nH]ncc3c2c2c1CCCC2 | 432 | 3570 | 699 | 3120 | 793 nM | 7950 nM | 870 | 5670 | 1070 | 3140 | 791 | 2990 | 56.6 | 196 | 391 | 1410 | 637 | 1500 | 617 | 1780
COc1cc(OC)cc(-c2ccc(-c3ccc(C(=N)N)s3)s2)c1 | 318 | 1220 | 1810 | 3470 | 517 nM and 302 nM | 2040 nM and 1130 nM | 404 | 1730 | 1810 | 3760 | 1660 | 3340 | 1460 | 3050 | 1750 | 3530 | 1410 | 2810 | 1520 | 3510
Cc1cc(S(N)(=O)=O)c(S/C(=N\Nc2ccc([N+](=O)[O-])cc2)c2ccc(O)cc2)cc1Cl | 2890 | 10600 | 5020 | 16800 | 1960 nM | 4140 nM | 2870 | 11100 | 2060 | 4040 | 2420 | 7540 | 7560 | 20500 | 1790 | 3840 | 1860 | 3380 | 2620 | 5730
